Test results reported in patent US20240254114A1, “PREPARATION OF FUSED AZOLE DERIVATIVES AS NOVEL DIACYLGLYCERIDE 0-ACYLTRANSFERASE 2 INHIBITORS” (Merck Sharp & Dohme LLC, priority 2022, published 2024).

Each molecule was assayed against human DGAT2 (Homo sapiens (Human), UniProt Q96PD7) (assay: DGAT2 Enzymatic Activity Assay). Details: Human DGAT2 IC50, hDGAT2 membrane prep from Sf-9 cells; 13C18-triolein product by LC/MS/MS.
Sequence of human DGAT2 (Q96PD7 whole entry): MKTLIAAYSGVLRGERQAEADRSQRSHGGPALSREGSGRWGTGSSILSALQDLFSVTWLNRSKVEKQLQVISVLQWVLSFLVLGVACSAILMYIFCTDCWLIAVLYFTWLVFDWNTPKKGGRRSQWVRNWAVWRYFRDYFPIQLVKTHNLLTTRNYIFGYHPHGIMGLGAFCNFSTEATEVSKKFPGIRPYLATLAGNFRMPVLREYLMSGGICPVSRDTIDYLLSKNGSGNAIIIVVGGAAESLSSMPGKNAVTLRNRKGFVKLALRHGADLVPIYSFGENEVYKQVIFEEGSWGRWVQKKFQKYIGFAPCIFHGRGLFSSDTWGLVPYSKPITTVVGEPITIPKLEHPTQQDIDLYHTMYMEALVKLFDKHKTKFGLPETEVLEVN
Procedure: Sf-9 insect cells were maintained in Grace's insect cell culture medium with 10% heated-inactivated fetal bovine serum, 1% Pluronic F-68 and 0.14 μg/ml Kanamycine sulfate at 27° C. in a shaker incubator. After infection with untagged baculovirus expressing human DGAT2 (hDGAT2) at multiplicity of infection (MOI) 3 for 48 hours, cells were harvested. Cell pellets were suspended in buffer containing 10 mM Tris-HCl pH 7.5, 1 mM EDTA, 250 mM sucrose and Complete Protease Inhibitor Cocktail (Sigma Aldrich), and sonicated on ice. Cell debris were removed by centrifugation at 2000×g for 15 minutes. Membrane fractions were isolated by ultracentrifugation (100,000×g), resuspended in the same buffer, and frozen (−80° C.) for later use. The protein concentration was determined with the Pierce™ BCA Protein Assay Kit (Thermo Fisher Scientific).
LC/MS/MS analyses were performed using Thermal Fisher's LX4-TSQ Vantage system. This system consists of an Agilent binary high-performance liquid chromatography (HPLC) pump and a TSQ Vantage triple quadrupole MS/MS instrument. For each sample, 2 μL samples from the top organic layer of in-plate liquid-liquid extraction were injected onto a Thermo Betabasic C4 column (2.1 mm×20 mm, 5 μm particle size). The samples were then eluted using the following conditions; mobile phase: Isopropanol: acetonitrile/10 mM ammonium formate=50/35/15 (v/v/v), flow rate: 0.8 mL/min, temperature: 25° C. Data was acquired in positive mode using a heated electrospray ionization (HESI) interface. […] The peak area was integrated by Xcalibur Quan software. The ratio between the ^13C18 triolein generated in the reaction and spiked in internal standard ^13C21-triolein was used to generate percentage inhibition and IC50 values. […] DGAT2 activity was determined by measuring the amount of enzymatic product ^13C18-triolein (^13C-1,2,3-Tri(cis-9-octadecenoyl)glycerol) using the membrane prep mentioned above. The assay was carried out in ABgene 384-well assay plates in a final volume of 25 μL at rt.

IC50 [nM]	Compound
2.8	Cn1c(C(=O)NC2(C)CCS(=O)(=O)CC2)nc2ccc(OCC(OCC(F)F)C(F)F)nc21 (single isomer, unassigned) [Example 65b, 5-[2-(2,2-difluoroethoxy)-3,3-difluoro-propoxy]-3-methyl-N-(4-methyl-1,1-dioxo-thian-4-yl)imidazo[4,5-b]pyridine-2-carboxamide]
1.3	CC1(NC(=O)c2nc3ccc(Oc4ncccc4OCC(F)(F)F)cc3s2)CCS(=O)(=O)CC1 [Example 91, N-(4-Methyl-1,1-dioxidotetrahydro-2H-thiopyran-4-yl)-6-((3-(2,2,2-trifluoroethoxy)pyridin-2-yl)oxy)benzo[d]thiazole-2-carboxamide]
2.5	CC1(NC(=O)c2nc3cnc(Oc4ncc(Cl)cc4OCC(F)F)cc3s2)CCS(=O)(=O)CC1 [Example 97, 6-[[5-chloro-3-(2,2-difluoroethoxy)-2-pyridyl]oxy]-N-(4-methyl-1,1-dioxo-thian-4-yl)thiazolo[4,5-c]pyridine-2-carboxamide]
0.6	Cc1c(Oc2ncc(Cl)cc2OCC(F)(F)F)ccc2nc(C(=O)NC3(C)CCS(=O)(=O)CC3)n(C)c12 [Example 25, 6-((5-chloro-3-(2,2,2-trifluoroethoxy)pyridin-2-yl)oxy)-1,7-dimethyl-N-(4-methyl-1,1-dioxidotetrahydro-2H-thiopyran-4-yl)-1H-benzo[d]imidazole-2-carboxamide]
681	CC1(NC(=O)c2nc3ncc(Oc4ncccc4OCC(F)(F)F)cc3o2)CCS(=O)(=O)CC1 [Example 98, N-(4-methyl-1,1-dioxidotetrahydro-2H-thiopyran-4-yl)-6-((3-(2,2,2-trifluoroethoxy)pyridin-2-yl)oxy)oxazolo[4,5-b]pyridine-2-carboxamide]
39	Cc1nc2nc(C(=O)NC3(C)CCS(=O)(=O)CC3)n(C)c2cc1Oc1ncc(Cl)cc1OCC(F)F [Example 86, 6-[[5-Chloro-3-(2,2-difluoroethoxy)-2-pyridyl]oxy]-1,5-dimethyl-N-(4-methyl-1,1-dioxo-thian-4-yl)imidazo[4,5-b]pyridine-2-carboxamide]
12	Cn1c(C(=O)NC2(C)CCS(=O)(=O)CC2)nc2ccc(Oc3ncc(F)cc3OCC(F)(F)F)nc21 [Example 29, 5-((5-Fluoro-3-(2,2,2-trifluoroethoxy)pyridin-2-yl)oxy)-3-methyl-N-(4-methyl-1,1-dioxidotetrahydro-2H-thiopyran-4-yl)-3H-imidazo[4,5-b]pyridine-2-carboxamide]
86	Cn1c(C(=O)NC2(C)CCS(=O)(=O)CC2)nc2cc(Cl)c(Oc3ncc(Cl)cc3OCC(F)F)nc21 [Example 44, 6-chloro-5-((5-chloro-3-(2,2-difluoroethoxy)pyridin-2-yl)oxy)-3-methyl-N-(4-methyl-1,1-dioxidotetrahydro-2H-thiopyran-4-yl)-3H-imidazo[4,5-b]pyridine-2-carboxamide]
16	Cn1c(C(=O)NC2(C)CCS(=O)(=O)CC2)nc2cnc(Oc3ncc(Cl)cc3OCC(F)F)cc21 [Example 66, 6-((5-Chloro-3-(2,2-difluoroethoxy)pyridin-2-yl)oxy)-1-methyl-N-(4-methyl-1,1-dioxidotetrahydro-2H-thiopyran-4-yl)-1H-imidazo[4,5-c]pyridine-2-carboxamide]
89	Cn1c(C(=O)NC2(C)CCS(=O)(=O)CC2)nc2c(Cl)c(Oc3ncc(Cl)cc3OCC(F)(F)F)ccc21 [Example 24, 4-Chloro-5-((5-chloro-3-(2,2,2-trifluoroethoxy)pyridin-2-yl)oxy)-1-methyl-N-(4-methyl-1,1-dioxidotetrahydro-2H-thiopyran-4-yl)-1H-benzo[d]imidazole-2-carboxamide]
2	CC1(NC(=O)c2nc3ccc(Oc4ncc(Cl)cc4OCC(F)F)nc3s2)CCS(=O)(=O)CC1 [Example 94, 5-((5-Chloro-3-(2,2-difluoroethoxy)pyridin-2-yl)oxy)-N-(4-methyl-1,1-dioxidotetrahydro-2H-thiopyran-4-yl)thiazolo[5,4-b]pyridine-2-carboxamide]
1.2	Cn1c(C(=O)NC2(C)CCS(=O)(=O)CC2)nc2ncc(Oc3ncc(Cl)cc3OCC(F)F)cc21 [Example 82, 6-[[5-Chloro-3-(2,2-difluoroethoxy)-2-pyridyl]oxy]-1-methyl-N-(4-methyl-1,1-dioxo-thian-4-yl)imidazo[4,5-b]pyridine-2-carboxamide]
2.7	Cn1c(C(=O)NC2(C)CCS(=O)(=O)CC2)nc2c(F)cc(Oc3ncc(Cl)cc3OCC(F)F)cc21 [Example 27, 6-((5-chloro-3-(2,2-difluoroethoxy)pyridin-2-yl)oxy)-4-fluoro-1-methyl-N-(4-methyl-1,1-dioxidotetrahydro-2H-thiopyran-4-yl)-1H-benzo[d]imidazole-2-carboxamide]

Compound	IC50 [nM]
Cn1c(C(=O)NC2(C)CCS(=O)(=O)CC2)nc2ccc(OCC(CC(F)(F)F)OCC(F)F)nc21 (single isomer, unassigned) [Example 63b, 5-[2-(2,2-difluoroethoxy)-4,4,4-trifluoro-butoxy]-3-methyl-N-(4-methyl-1,1-dioxo-thian-4-yl)imidazo[4,5-b]pyridine-2-carboxamide]	0.8

Same assay, conditions: read-out: Human DGAT2 IC50; hDGAT2 membrane prep from Sf-9 cells; 13C18-triolein product by LC/MS/MS

IC50 [nM]	Compound
105	Cn1c(C(=O)NC2(C)CCS(=O)(=O)CC2)nc2cnc(Oc3nccnc3OCC(F)(F)F)cc21 [Example 69, 1-methyl-N-(4-methyl-1,1-dioxo-thian-4-yl)-6-[3-(2,2,2-trifluoroethoxy)pyrazin-2-yl]oxy-imidazo[4,5-c]pyridine-2-carboxamide]
472	O=C(N[C@H]1CCOC1)c1nc2ccc(Oc3ncccc3OCC(F)(F)F)cc2s1 [Example 93, N-[(3S)-tetrahydrofuran-3-yl]-6-[[3-(2,2,2-trifluoroethoxy)-2-pyridyl]oxy]-1,3-benzothiazole-2-carboxamide]
2.8	Cn1c(C(=O)NC2(C)CCS(=O)(=O)CC2)nc2ccc(OCc3ncc(F)cc3OCC(F)(F)F)nc21 [Example 59, 5-[[5-Fluoro-3-(2,2,2-trifluoroethoxy)-2-pyridyl]methoxy]-3-methyl-N-(4-methyl-1,1-dioxo-thian-4-yl)imidazo[4,5-b]pyridine-2-carboxamide]
6.9	Cn1c(C(=O)NC2(C)CCS(=O)(=O)CC2)nc2cnc(Oc3ncc(F)cc3OCC(F)F)cc21 [Example 72, 6-[[3-(2,2-difluoroethoxy)-5-fluoro-2-pyridyl]oxy]-1-methyl-N-(4-methyl-1,1-dioxo-thian-4-yl)imidazo[4,5-c]pyridine-2-carboxamide]
25	Cn1c(C(=O)NC2(C)CCS(=O)(=O)CC2)nc2cnc(Oc3ncc(F)cc3OCC(F)(F)F)nc21 [Example 89, 2-[[5-fluoro-3-(2,2,2-trifluoroethoxy)-2-pyridyl]oxy]-9-methyl-N-(4-methyl-1,1-dioxo-thian-4-yl)purine-8-carboxamide]
236	CC1(NC(=O)c2nc3ccc(Oc4ncc(Cl)cc4OCC(F)(F)F)cc3o2)CC(F)(F)C1 [Example 4]
42	Cn1c(C(=O)NC2(C)CS(=O)(=O)C2)nc2ccc(Oc3ncc(F)cc3OCC(F)F)nc21 [Example 36, 5-[[3-(2,2-difluoroethoxy)-5-fluoro-2-pyridyl]oxy]-3-methyl-N-(3-methyl-1,1-dioxo-thietan-3-yl)imidazo[4,5-b]pyridine-2-carboxamide]
